Values joined by “and” are separate entries in the source; they are usually repeats but may differ in a detail not shown here. Identical values can stand only once.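 All cell lines were grown in 96-well plates and treated with compound for 48 hours. TGI denotes the concentration required for complete inhibition of growth.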
Columns and labels:
Test in all cases: NCI anticancer screen, dose series, 48 h
PC-3 prostate = tested on: PC-3 prostate
MDA-N = tested on: MDA-N
SW-620 colon = tested on: SW-620 colon
HCT-116 colon = tested on: HCT-116 colon
COLO 205 colon = tested on: COLO 205 colon
EKVX NSCLC = tested on: EKVX NSCLC
M14 melanoma = tested on: M14 melanoma
SN12C renal = tested on: SN12C renal
NCI-H522 lung = tested on: NCI-H522 lung
HOP-92 NSCLC = tested on: HOP-92 NSCLC
IGROV1 ovarian = tested on: IGROV1 ovarian
OVCAR-8 ovarian = tested on: OVCAR-8 ovarian
LOX IMVI melanoma = tested on: LOX IMVI melanoma

## NC1(CCNC(=O)c2ccccc2)CCN(C(=O)c2ccccc2)CC1
PC-3 prostate
  TGI: > 100 µM
MDA-N
  TGI: > 100 µM
SW-620 colon
  TGI: > 100 µM
HCT-116 colon
  TGI: > 100 µM
COLO 205 colon
  TGI: > 100 µM
EKVX NSCLC
  TGI: > 100 µM
M14 melanoma
  TGI: > 100 µM
SN12C renal
  TGI: > 100 µM
NCI-H522 lung
  TGI: > 100 µM
HOP-92 NSCLC
  TGI: > 100 µM
IGROV1 ovarian
  TGI: > 100 µM
OVCAR-8 ovarian
  TGI: > 100 µM

## Cn1nnnc1SC(F)(F)c1nc2ccccc2o1
PC-3 prostate
  TGI: > 100 µM
MDA-N
  TGI: > 100 µM
SW-620 colon
  TGI: > 100 µM
HCT-116 colon
  TGI: > 100 µM
COLO 205 colon
  TGI: > 100 µM
M14 melanoma
  TGI: > 100 µM
SN12C renal
  TGI: > 100 µM
NCI-H522 lung
  TGI: > 100 µM
HOP-92 NSCLC
  TGI: > 100 µM
IGROV1 ovarian
  TGI: > 100 µM
OVCAR-8 ovarian
  TGI: > 100 µM

## COC(=O)N[C@H](C(=O)NC(OCc1ccccc1)C1COC(C)(C)O1)C(C)O[Si](C)(C)C(C)(C)C (stereo partly specified)
PC-3 prostate
  TGI: > 100 µM
MDA-N
  TGI: > 100 µM
SW-620 colon
  TGI: > 100 µM
HCT-116 colon
  TGI: > 100 µM
COLO 205 colon
  TGI: > 100 µM
EKVX NSCLC
  TGI: > 100 µM
M14 melanoma
  TGI: > 100 µM
HOP-92 NSCLC
  TGI: > 100 µM
IGROV1 ovarian
  TGI: > 100 µM
OVCAR-8 ovarian
  TGI: > 100 µM

## CC(=O)O[C@]12CCCCCC1C1(O)C(O)CCCCC12 (stereo partly specified)
SW-620 colon
  TGI: > 100 µM
COLO 205 colon
  TGI: > 100 µM
EKVX NSCLC
  TGI: > 100 µM
M14 melanoma
  TGI: > 100 µM
LOX IMVI melanoma
  TGI: > 100 µM
SN12C renal
  TGI: > 100 µM
NCI-H522 lung
  TGI: > 100 µM
OVCAR-8 ovarian
  TGI: > 100 µM

## C/C=C\C(CC(=O)NCC(=O)c1c[nH]c2ccccc12)CC(=O)OC (stereo unspecified)
PC-3 prostate
  TGI: > 100 µM
MDA-N
  TGI: > 100 µM
SW-620 colon
  TGI: > 100 µM
HCT-116 colon
  TGI: > 100 µM
COLO 205 colon
  TGI: > 100 µM
EKVX NSCLC
  TGI: > 100 µM
M14 melanoma
  TGI: > 100 µM
NCI-H522 lung
  TGI: > 100 µM
HOP-92 NSCLC
  TGI: > 100 µM
IGROV1 ovarian
  TGI: > 100 µM
OVCAR-8 ovarian
  TGI: > 100 µM

## O=Cc1ccc(-c2ccc(-c3ccc(CO)s3)o2)s1
PC-3 prostate
  TGI: > 100 µM
SW-620 colon
  TGI: > 100 µM
HCT-116 colon
  TGI: > 40.1 µM
COLO 205 colon
  TGI: > 85.7 µM
EKVX NSCLC
  TGI: > 69.1 µM
M14 melanoma
  TGI: > 70.6 µM
LOX IMVI melanoma
  TGI: 16.2 µM
SN12C renal
  TGI: > 88.8 µM
NCI-H522 lung
  TGI: 47.7 µM
HOP-92 NSCLC
  TGI: 61.5 µM
OVCAR-8 ovarian
  TGI: 49 µM

## CN1CC=C(c2c(N)nc(N)[nH]c2=O)CC1
PC-3 prostate
  TGI: > 100 µM
MDA-N
  TGI: > 100 µM
SW-620 colon
  TGI: > 100 µM
HCT-116 colon
  TGI: > 100 µM
COLO 205 colon
  TGI: > 100 µM
EKVX NSCLC
  TGI: > 100 µM
M14 melanoma
  TGI: > 100 µM
SN12C renal
  TGI: > 100 µM
NCI-H522 lung
  TGI: > 100 µM
HOP-92 NSCLC
  TGI: > 100 µM
IGROV1 ovarian
  TGI: > 100 µM
OVCAR-8 ovarian
  TGI: > 100 µM

## Cc1n[n+](Cc2ccccc2)c2sc(N)nn12
PC-3 prostate
  TGI: > 100 µM
MDA-N
  TGI: > 100 µM
SW-620 colon
  TGI: > 100 µM
HCT-116 colon
  TGI: > 100 µM
COLO 205 colon
  TGI: > 100 µM
EKVX NSCLC
  TGI: > 100 µM
M14 melanoma
  TGI: > 100 µM
LOX IMVI melanoma
  TGI: > 100 µM
SN12C renal
  TGI: > 100 µM
NCI-H522 lung
  TGI: 76.2 µM
IGROV1 ovarian
  TGI: > 100 µM
OVCAR-8 ovarian
  TGI: > 100 µM

## CCOC(=O)c1c(OCC)[nH]c(=O)c(C(c2cccs2)c2c(O)c(C(=O)OCC)c(OCC)[nH]c2=O)c1O
PC-3 prostate
  TGI: > 100 µM
SW-620 colon
  TGI: 34.1 µM
HCT-116 colon
  TGI: 45 µM
COLO 205 colon
  TGI: 40.7 µM
EKVX NSCLC
  TGI: 32.7 µM
M14 melanoma
  TGI: 35.6 µM
LOX IMVI melanoma
  TGI: 30.7 µM
SN12C renal
  TGI: 34.6 µM
NCI-H522 lung
  TGI: 27.6 µM
HOP-92 NSCLC
  TGI: 48.2 µM
IGROV1 ovarian
  TGI: 28.6 µM
OVCAR-8 ovarian
  TGI: 41.6 µM

## O=C(NCCN1CCOCC1)c1ccc(I)cc1
PC-3 prostate
  TGI: > 100 µM
SW-620 colon
  TGI: > 100 µM
EKVX NSCLC
  TGI: > 100 µM
M14 melanoma
  TGI: > 100 µM
LOX IMVI melanoma
  TGI: > 100 µM
SN12C renal
  TGI: > 100 µM
IGROV1 ovarian
  TGI: > 100 µM
OVCAR-8 ovarian
  TGI: > 100 µM

## COc1cc2nc(-c3cccs3)nc(Cl)c2cc1OC
PC-3 prostate
  TGI: > 100 µM
SW-620 colon
  TGI: > 100 µM
HCT-116 colon
  TGI: > 100 µM
COLO 205 colon
  TGI: > 100 µM
EKVX NSCLC
  TGI: > 100 µM
M14 melanoma
  TGI: > 100 µM
SN12C renal
  TGI: > 100 µM
NCI-H522 lung
  TGI: > 100 µM
IGROV1 ovarian
  TGI: > 100 µM
OVCAR-8 ovarian
  TGI: > 100 µM

## O=P1(Cc2ccccc2)N(Cc2ccccc2)[C@@H]2CCCC[C@H]2N1Cc1ccccc1
PC-3 prostate
  TGI: 15.3 µM
MDA-N
  TGI: 19.8 µM
SW-620 colon
  TGI: 30.1 µM
HCT-116 colon
  TGI: 20 µM
COLO 205 colon
  TGI: 18.7 µM
EKVX NSCLC
  TGI: 22.4 µM
M14 melanoma
  TGI: 16.6 µM
LOX IMVI melanoma
  TGI: 26.1 µM
SN12C renal
  TGI: 23.2 µM
NCI-H522 lung
  TGI: 14.4 µM
IGROV1 ovarian
  TGI: 19.4 µM
OVCAR-8 ovarian
  TGI: 23.8 µM

## CCC1CC(O)c2c(O)c3c(c(O)c2C1O)C(=O)c1cccc(O)c1C3=O (stereo unspecified) (tested in a mixture with another compound)
PC-3 prostate
  TGI: 0.0749 µM and 0.159 µM
MDA-N
  TGI: 0.093 µM and 0.0639 µM
SW-620 colon
  TGI: 0.0707 µM and 0.128 µM
HCT-116 colon
  TGI: 0.741 µM
COLO 205 colon
  TGI: 0.0939 µM and 0.019 µM
EKVX NSCLC
  TGI: 0.0864 µM and 0.192 µM
M14 melanoma
  TGI: 0.0434 µM and 0.0173 µM
LOX IMVI melanoma
  TGI: 0.0509 µM
SN12C renal
  TGI: 1.05 µM
NCI-H522 lung
  TGI: 0.0658 µM
IGROV1 ovarian
  TGI: 0.239 µM and 1.02 µM
OVCAR-8 ovarian
  TGI: 0.181 µM and 1.19 µM

## NCCCNCCCCN1CCOC1=O
PC-3 prostate
  TGI: > 100 µM
MDA-N
  TGI: > 100 µM
SW-620 colon
  TGI: > 100 µM
HCT-116 colon
  TGI: > 100 µM
COLO 205 colon
  TGI: > 100 µM
EKVX NSCLC
  TGI: > 100 µM
M14 melanoma
  TGI: > 100 µM
LOX IMVI melanoma
  TGI: > 100 µM
SN12C renal
  TGI: > 100 µM
NCI-H522 lung
  TGI: > 100 µM
IGROV1 ovarian
  TGI: > 100 µM
OVCAR-8 ovarian
  TGI: > 100 µM

## N#Cc1cc2c(cc1Cl)Sc1nnc(Nc3ccccc3)n1S2(=O)=O
PC-3 prostate
  TGI: 3.89 µM
SW-620 colon
  TGI: 3.13 µM
HCT-116 colon
  TGI: 4 µM
COLO 205 colon
  TGI: 4.75 µM
EKVX NSCLC
  TGI: 7.95 µM
M14 melanoma
  TGI: 4.78 µM
LOX IMVI melanoma
  TGI: 3.75 µM
SN12C renal
  TGI: 3.24 µM
NCI-H522 lung
  TGI: 4.33 µM
HOP-92 NSCLC
  TGI: 4.74 µM
IGROV1 ovarian
  TGI: 5.76 µM
OVCAR-8 ovarian
  TGI: 4.41 µM

## O=c1[nH]nc(Cc2ccc(Cl)cc2)n1/N=C/c1cccs1
PC-3 prostate
  TGI: > 100 µM
MDA-N
  TGI: > 100 µM
SW-620 colon
  TGI: > 100 µM
HCT-116 colon
  TGI: > 100 µM
COLO 205 colon
  TGI: > 100 µM
EKVX NSCLC
  TGI: > 100 µM
M14 melanoma
  TGI: > 100 µM
SN12C renal
  TGI: > 100 µM
NCI-H522 lung
  TGI: 68.8 µM
HOP-92 NSCLC
  TGI: 64.2 µM
IGROV1 ovarian
  TGI: 79.5 µM
OVCAR-8 ovarian
  TGI: > 100 µM

## COCCn1cnc2c(Cl)nc(Nc3ccccc3)nc21
PC-3 prostate
  TGI: 56.4 µM
SW-620 colon
  TGI: > 100 µM
HCT-116 colon
  TGI: > 100 µM
COLO 205 colon
  TGI: > 100 µM
EKVX NSCLC
  TGI: 51.9 µM
M14 melanoma
  TGI: 60.8 µM
LOX IMVI melanoma
  TGI: 33.2 µM
SN12C renal
  TGI: 95.4 µM
IGROV1 ovarian
  TGI: 50.9 µM
OVCAR-8 ovarian
  TGI: 54.9 µM

## COCn1cnc2c(=O)nc(SC)n(-c3ccccc3)c21
MDA-N
  TGI: > 100 µM
SW-620 colon
  TGI: > 100 µM
HCT-116 colon
  TGI: > 100 µM
COLO 205 colon
  TGI: > 100 µM
EKVX NSCLC
  TGI: > 100 µM
M14 melanoma
  TGI: > 100 µM
LOX IMVI melanoma
  TGI: > 100 µM
SN12C renal
  TGI: > 100 µM
NCI-H522 lung
  TGI: > 100 µM
HOP-92 NSCLC
  TGI: > 100 µM
IGROV1 ovarian
  TGI: > 100 µM
OVCAR-8 ovarian
  TGI: > 100 µM

## CCOC(=O)C(Cc1ccc(O)cc1)Nc1nc(=O)c2c(=O)oc(Cl)cc2o1 (stereo unspecified)
PC-3 prostate
  TGI: 21.4 µM
SW-620 colon
  TGI: 15.2 µM
HCT-116 colon
  TGI: 20.9 µM
COLO 205 colon
  TGI: 37.9 µM
EKVX NSCLC
  TGI: 25.5 µM
M14 melanoma
  TGI: 15.1 µM
LOX IMVI melanoma
  TGI: 27.9 µM
SN12C renal
  TGI: 36.8 µM
NCI-H522 lung
  TGI: 19.9 µM
HOP-92 NSCLC
  TGI: 25.9 µM
IGROV1 ovarian
  TGI: 19.4 µM
OVCAR-8 ovarian
  TGI: 14 µM

From PubChem BioAssay (NCI)
